Results taken from ChEMBL document CHEMBL1201862, “PubChem BioAssay data set” (2004).
Calls of active or inactive are those of the source. Cut-off read from the data, not from the text of the source, for most assays here: actives have a measured EC50 and inactives only a lower limit.

What was measured:
[1] = target: T1, Heat shock factor protein 1 (Mus musculus, UniProt P38532); experiment: decrease of HSF1-responsive luciferase luminescence – cell-based, NIH3T3, dose retest, confirmation (AID 2382); assay type: functional;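 note: NIH3T3 fibroblasts with HSF1-driven luciferase reporter stressed by proteasome inhibitor MG132; luminescence from HSF1-driven luciferase expression after 8 hours of MG132 stress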
T1 sequence (P38532 whole entry): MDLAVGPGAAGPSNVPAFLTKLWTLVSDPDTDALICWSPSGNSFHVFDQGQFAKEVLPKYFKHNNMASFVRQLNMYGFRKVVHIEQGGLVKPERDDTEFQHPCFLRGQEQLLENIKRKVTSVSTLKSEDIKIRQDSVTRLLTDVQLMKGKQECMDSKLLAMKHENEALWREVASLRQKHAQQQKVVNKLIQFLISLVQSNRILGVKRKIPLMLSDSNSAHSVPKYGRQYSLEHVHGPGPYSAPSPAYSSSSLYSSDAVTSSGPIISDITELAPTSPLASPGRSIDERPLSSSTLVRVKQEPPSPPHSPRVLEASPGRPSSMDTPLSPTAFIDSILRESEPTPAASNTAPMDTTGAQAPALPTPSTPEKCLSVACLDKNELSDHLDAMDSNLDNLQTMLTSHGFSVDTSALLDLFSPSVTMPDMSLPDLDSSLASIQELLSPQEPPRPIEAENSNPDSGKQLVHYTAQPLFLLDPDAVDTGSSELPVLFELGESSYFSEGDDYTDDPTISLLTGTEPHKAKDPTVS

[2] = tested on: Streptococcus sp. 'group A'; experiment: Streptococcus pyogenes SK(-)GAS viability under kanamycin – luminescence, BacTiterGlo, confirmation, counter-screen for streptokinase expression inhibitor project, dose response (AID 1900); assay type: functional, organism-based
Streptococcus = experiment: GAS UMAA2166 growth inhibition – luminescence, BacTiterGlo, counter-screen for streptokinase expression inhibitor project, dose response (AID 1915); assay type: functional, organism-based;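 note: potency for reduction of bacterial viability or growth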
[3] = Trypanosoma cruzi growth suppression in host cells – NIH3T3 host cells, beta-gal luminescence, confirmation (AID 2044); assay type: functional, cell-based;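 note: intracellular parasites grown in NIH/3T3 mouse fibroblasts as host cells; luminescent beta-galactosidase reporter signal from transgenic T. cruzi replicating inside host cells; inhibitors lower the luminescence signal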
[4] = NIH3T3 cell viability loss – ATP luminescence, mouse fibroblasts, counter-screen, dose response (AID 2010); assay type: functional, cell-based;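 note: cells exposed to compound for about 90 hours before reading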
Streptokinase A = target: T2, Streptokinase A (Streptococcus pyogenes serotype M1, UniProt P10520); experiment: viability-normalized secreted streptokinase activity reduction – plasminogen activation absorbance, OD405, dose response (AID 1914); assay type: functional, Streptococcus pyogenes M1 GAS;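 note: secreted streptokinase activity via plasminogen activation per viability signal from cell pellet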
T2 sequence (P10520 whole entry): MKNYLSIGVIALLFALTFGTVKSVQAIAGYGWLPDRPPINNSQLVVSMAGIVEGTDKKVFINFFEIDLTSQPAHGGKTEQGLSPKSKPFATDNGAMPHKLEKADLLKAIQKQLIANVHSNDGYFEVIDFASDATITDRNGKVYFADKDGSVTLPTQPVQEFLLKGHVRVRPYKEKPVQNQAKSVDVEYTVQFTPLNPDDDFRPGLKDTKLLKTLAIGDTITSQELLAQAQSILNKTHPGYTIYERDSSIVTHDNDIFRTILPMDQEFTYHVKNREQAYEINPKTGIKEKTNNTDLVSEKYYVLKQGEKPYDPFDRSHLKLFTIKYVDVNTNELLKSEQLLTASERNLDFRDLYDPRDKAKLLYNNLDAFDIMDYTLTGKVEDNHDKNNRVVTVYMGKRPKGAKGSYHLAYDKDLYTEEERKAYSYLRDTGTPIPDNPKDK

[5] = target: T3, Rac GTPase-activating protein 1 (Homo sapiens, UniProt Q9H0H5); experiment: blockers of MgcRacGAP-driven Rac1 GTP hydrolysis – biochemical, ADP Hunter fluorescence, primary and confirmatory, confirmation (AID 624330); assay type: functional
T3 sequence (Q9H0H5 whole entry): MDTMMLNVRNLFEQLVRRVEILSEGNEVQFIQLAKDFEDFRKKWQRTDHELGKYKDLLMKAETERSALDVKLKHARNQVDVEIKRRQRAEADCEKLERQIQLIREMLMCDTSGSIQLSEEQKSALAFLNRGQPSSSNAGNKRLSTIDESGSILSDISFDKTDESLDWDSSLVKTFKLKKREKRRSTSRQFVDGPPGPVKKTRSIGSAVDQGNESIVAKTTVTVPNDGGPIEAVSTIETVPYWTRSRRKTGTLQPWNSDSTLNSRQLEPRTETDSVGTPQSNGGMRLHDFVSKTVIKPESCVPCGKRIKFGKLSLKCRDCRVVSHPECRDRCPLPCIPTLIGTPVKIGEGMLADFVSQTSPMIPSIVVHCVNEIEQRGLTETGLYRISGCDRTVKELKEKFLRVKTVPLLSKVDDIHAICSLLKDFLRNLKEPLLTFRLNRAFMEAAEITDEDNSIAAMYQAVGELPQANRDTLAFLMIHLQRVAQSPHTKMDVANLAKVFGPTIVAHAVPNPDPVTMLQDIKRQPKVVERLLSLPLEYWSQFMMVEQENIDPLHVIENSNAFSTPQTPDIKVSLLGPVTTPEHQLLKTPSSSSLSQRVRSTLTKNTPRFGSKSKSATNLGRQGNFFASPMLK

Cytochrome P450 2C9 = Cytochrome P450 2C9 (Homo sapiens, UniProt P11712)
Chain of Cytochrome P450 2C9 (P11712 whole entry): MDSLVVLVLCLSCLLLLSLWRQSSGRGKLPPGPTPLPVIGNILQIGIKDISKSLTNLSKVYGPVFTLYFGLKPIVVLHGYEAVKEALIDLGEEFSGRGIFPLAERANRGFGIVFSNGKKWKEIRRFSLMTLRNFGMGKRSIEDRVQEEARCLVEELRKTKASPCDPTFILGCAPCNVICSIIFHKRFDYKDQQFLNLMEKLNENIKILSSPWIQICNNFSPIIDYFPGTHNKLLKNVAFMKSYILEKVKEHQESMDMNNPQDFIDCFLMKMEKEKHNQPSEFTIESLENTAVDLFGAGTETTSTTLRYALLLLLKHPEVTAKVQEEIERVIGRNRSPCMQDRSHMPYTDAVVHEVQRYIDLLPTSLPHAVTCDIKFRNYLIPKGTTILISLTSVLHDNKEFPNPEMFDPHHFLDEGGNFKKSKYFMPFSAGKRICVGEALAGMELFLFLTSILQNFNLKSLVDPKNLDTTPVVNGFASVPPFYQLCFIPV

With `c1ccn2c(SCc3ccc4c(c3)OCO4)nnc2c1` the EC50 [1] was > 195 µM (not active).

In the case of `C[C@H]1COc2c(C3(N)CC3)c(F)cc3c(=O)c(C(=O)O)cn1c23` [PAZUFLOXACIN], the EC50 [2] is reported as 7.22 µM (active) and the EC50 (Streptococcus) is reported as 6.74 µM (active).

With `CCOC(=O)C1=C(Nc2ccccc2)CC(C)(O)C(C(=O)OCC)C1c1ccccc1` (stereo not given) the EC50 [3] was > 60 µM (not active) and the EC50 [4] was > 60 µM (not active).

In the case of `Cc1cc(OCC(=O)Nc2sc3c(c2C#N)CC(C)(C)NC3(C)C)c(C(C)C)cc1Cl`, the EC50 [1] is reported as > 195 µM (not active).

With `CC(C)C1Cc2c(sc3[nH]c(=S)n(Cc4ccccc4)c(=O)c23)CO1` (stereo not given) the EC50 [2] was 2.15 µM (active), the EC50 (Streptokinase A) was > 150 µM (not active) and the EC50 (Streptococcus) was 33.4 µM (active).

In the case of `COc1cc(/C=C/C(=O)OCC(=O)c2ccc[nH]2)ccc1O`, the IC50 [5] is reported as 32.2 µM (active).

For `CCc1ccc(NC(=O)CNCc2ccc(OC)c(OC)c2)cc1`, the IC50 [5] was 131 µM (active).

With `COc1ccc(NC(=O)C(NC(=O)CNC(C)=O)c2ccc(C)cc2)cc1` (stereo not given) the EC50 [1] was > 195 µM (not active).

With `O=C(C1CCCN(S(=O)(=O)Cc2ccccc2)C1)N1CCc2ccccc21` (stereo not given) the EC50 [1] was > 195 µM (not active).

For `COc1ccc(S(=O)(=O)N2CCN=C2SCc2cccc(C)c2)cc1`, the EC50 [2] was > 150 µM (not active), the EC50 (Streptokinase A) was 46.6 µM (inconclusive) and the EC50 (Streptococcus) was > 150 µM (not active).

In the case of `Cc1ccccc1CN1CCN(C(=O)CC(C)C)CC1`, the EC50 [1] is reported as > 195 µM (not active).

In the case of `O=C(c1cccc(F)c1)N1CCC[C@@]2(CCN(c3cccc(-c4ccccc4)c3)C2)C1`, the AC50 (Cytochrome P450 2C9) is reported as 20 µM (inconclusive).

For `COC(=O)[C@@]12CCCCN1[C@H](c1ccc(-c3cccc(Cl)c3)c(OC)c1)[C@@H]1C(=O)N(C)C(=O)[C@@H]12`, the EC50 [3] was 2.48 µM (active) and the EC50 [4] was > 60 µM (not active).

In the case of `CCCCNC(=O)C(=O)N/N=C/c1ccc(C(=O)OC)cc1`, the EC50 [1] is reported as > 195 µM (not active).

With `CC(C)Cc1ccc(CN2CCCC(NC(=O)c3cnc4ccccn4c3=O)C2)cc1` (stereo not given) the EC50 [3] was 0.131 µM (active) and the EC50 [4] was 26.7 µM (active).

For `COCCCNCCOc1ccc(C(C)(C)c2ccccc2)cc1`, the EC50 [3] was 0.611 µM (active) and the EC50 [4] was 7.83 µM (active).

With `NC(=O)CSc1nc2sc(-c3ccccc3)cc2c(=O)n1N` the AC50 (Cytochrome P450 2C9) was 3.55 µM (inconclusive).

In the case of `C[C@H](CO)NC(=O)[C@H](C)[C@@H]1C[C@@]1(C)[C@@H](NC(=O)OCc1ccccc1)c1ccccc1`, the AC50 (Cytochrome P450 2C9) is reported as 39.8 µM (inconclusive).

For `COc1cc(/C=C/CN2CCC(Oc3ccc(C(=O)N4CCCC4)cc3)CC2)ccc1O`, the IC50 [5] was 81.2 µM (active).

For `COc1ccc(Oc2nc(-c3ccccn3)ncc2OC)cc1`, the EC50 [2] was > 150 µM (not active), the EC50 (Streptokinase A) was > 150 µM (not active) and the EC50 (Streptococcus) was > 150 µM (not active).

With `COc1cccc(CN2CCC(n3nccc3NC(=O)CCCc3ccccc3)CC2)c1O` the EC50 [1] was > 195 µM (not active).

With `Cc1ccc(/C=C(\NC(=O)c2ccccc2)C(=O)N2CCCC2C(=O)O)cc1` (stereo not given) the EC50 [1] was > 195 µM (not active).

In the case of `Cc1cc(C)c(/N=C2\SCC(=O)N2Cc2ccco2)c(C)c1`, the EC50 [1] is reported as > 195 µM (not active).

With `Fc1ccc(-c2cc(-c3ccccc3)nc(-n3cccn3)n2)cc1` the EC50 [1] was > 195 µM (not active).

For `CCOC(=O)N1CCC(NC(=O)CN2C(=O)CSc3nc(C)cc(C)c32)CC1`, the EC50 [1] was > 195 µM (not active).

With `Cc1ccc(/C=C/C2=NN(Cc3ccc(Cl)c(Cl)c3)C(=O)CC2)cc1` the EC50 [2] was 17.2 µM (active), the EC50 (Streptokinase A) was 24.3 µM (active) and the EC50 (Streptococcus) was 50.6 µM (active).

For `NNC(=O)c1nn(-c2ccc(Cl)cc2)cc1O`, the EC50 [1] was 27 µM (active).
